Where two headings read alike, the source gives them in different places.
How the values were obtained:
[1] = biological target: GLP-1R (Homo sapiens, UniProt P43220); assay: GLP-1R activation: cAMP increase in CHO cells stably expressing GLP-1R; type: cell-based
[2] = Microsomal stability, human liver microsomes (predicted hepatic clearance); details: predicted from in vitro microsomal stability data
[3] = cAMP increase, CHO cells stably expressing GLP-1R, 10 point dose response, 30 minutes incubation, read-out: EC50

Chain of GLP-1R (P43220 24-463): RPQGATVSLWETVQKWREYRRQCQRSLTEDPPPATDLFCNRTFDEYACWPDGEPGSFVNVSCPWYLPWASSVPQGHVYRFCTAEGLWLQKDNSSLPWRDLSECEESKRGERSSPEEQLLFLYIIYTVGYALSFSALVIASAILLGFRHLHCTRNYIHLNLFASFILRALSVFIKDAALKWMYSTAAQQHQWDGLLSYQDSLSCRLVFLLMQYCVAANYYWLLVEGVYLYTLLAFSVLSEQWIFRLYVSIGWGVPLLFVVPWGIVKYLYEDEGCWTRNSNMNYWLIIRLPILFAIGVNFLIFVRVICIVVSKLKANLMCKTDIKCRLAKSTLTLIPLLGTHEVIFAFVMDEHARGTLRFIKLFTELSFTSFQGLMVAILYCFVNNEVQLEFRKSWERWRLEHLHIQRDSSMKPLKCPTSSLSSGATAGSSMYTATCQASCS

SMILES: COCCn1c(Cc2cc(F)c(-c3cccc(OCc4ccc(C#N)cc4F)n3)cc2F)nc2ccc(C(=O)O)cc21 [Example 426, 2-(4-(6-((4-cyano-2-fluorobenzyl)oxy)pyridin-2-yl)-2,5-difluorobenzyl)-1-(2-methoxyethyl)-1H-benzo[d]imidazole-6-carboxylic acid]
- EC50 [1, 3]: 2.34 nM
- Predicted Hepatic Clearance (Pred. Cl.) [2]: 4.6 mL/min/kg

SMILES: CC1(Cn2c(Cc3cc(F)c(-c4cccc(OCc5ccc(C#N)cc5F)n4)cc3F)nc3ccc(C(=O)O)cc32)CCOCC1 [Example 839]
- EC50 [1, 3]: 7.04 nM
- Predicted Hepatic Clearance (Pred. Cl.) [2]: 5.83 mL/min/kg

SMILES: COCCn1c(Cc2ccc(-c3cccc(OCc4cccc5ccoc45)n3)cc2F)nc2ccc(C(=O)O)cc21 [Example 136, 2-(4-(6-(benzofuran-7-ylmethoxy)pyridin-2-yl)-2-fluorobenzyl)-1-(2-methoxyethyl)-1H-benzo[d]imidazole-6-carboxylic acid]
- EC50 [1, 3]: 24.5 nM
- Predicted Hepatic Clearance (Pred. Cl.) [2]: 9 mL/min/kg

SMILES: N#Cc1ccc(COc2cccc(-c3ccc(Cc4nc5ccc(C(=O)O)cc5n4CC4(O)COC4)c(F)c3)n2)c(F)c1 [Example 316, 2-(4-(6-((4-cyano-2-fluorobenzyl)oxy)pyridin-2-yl)-2-fluorobenzyl)-1-((3-hydroxyoxetan-3-yl)methyl)-1H-benzo[d]imidazole-6-carboxylic acid]
- EC50 [1, 3]: 14 nM
- Predicted Hepatic Clearance (Pred. Cl.) [2]: 4.67 mL/min/kg

SMILES: COCCn1c(Cc2ccc(-c3cccc(OCc4cnc(Cl)s4)n3)cc2F)nc2ccc(C(=O)O)cc21 [Example 593, 2-(4-(6-((2-chlorothiazol-5-yl)methoxy)pyridin-2-yl)-2-fluorobenzyl)-1-(2-methoxyethyl)-1H-benzo[d]imidazole-6-carboxylic acid]
- EC50 [1, 3]: 145 nM
- Predicted Hepatic Clearance (Pred. Cl.) [2]: 8.3 mL/min/kg

SMILES: COc1cc(C#N)ccc1COc1nccc(-c2cc(F)c(Cc3nc4c(F)cc(C(=O)O)cc4n3C[C@@H]3CCO3)cc2F)n1 [Example 398, (S)-2-(4-(2-((4-cyano-2-methoxybenzyl)oxy)pyrimidin-4-yl)-2,5-difluorobenzyl)-4-fluoro-1-(oxetan-2-ylmethyl)-1H-benzo[d]imidazole-6-carboxylic acid]
- EC50 [1, 3]: 0.1 nM
- Predicted Hepatic Clearance (Pred. Cl.) [2]: 10.2 mL/min/kg

SMILES: N#Cc1cc(F)c(COc2nc(-c3cc(F)c(Cc4nc5c(F)cc(C(=O)O)cc5n4C[C@@H]4CCO4)cc3F)ccc2F)cc1F [Example 766]
- EC50 [1, 3]: 0.13 nM
- Predicted Hepatic Clearance (Pred. Cl.) [2]: 3 mL/min/kg

SMILES: N#Cc1ccc(COc2cccc(-c3cc(F)c(Cc4nc5ccc(C(=O)O)cc5n4CC4(O)CC4)cc3F)n2)c(F)c1 [Example 733]
- EC50 [1, 3]: 2.47 nM
- Predicted Hepatic Clearance (Pred. Cl.) [2]: 3.83 mL/min/kg

SMILES: N#Cc1ccc(COc2cccc(-c3cc(F)c(Cc4nc5ccc(C(=O)O)cc5n4CC45CC(C4)C(C(F)(F)F)O5)cc3F)n2)c(F)c1 (stereo not drawn) [Example 737]
- EC50 [1, 3]: 1.89 nM
- Predicted Hepatic Clearance (Pred. Cl.) [2]: 1.83 mL/min/kg

SMILES: N#Cc1ccc(COc2cccc(-c3ccc(Cc4nc5ncc(C(=O)O)cc5n4CC4(CF)CC4)c(F)c3)n2)c(F)c1 [Example 94, 2-(4-(6-((4-cyano-2-fluorobenzyl)oxy)pyridin-2-yl)-2-fluorobenzyl)-1-((1-(fluoromethyl)cyclopropyl)methyl)-1H-imidazo[4,5-b]pyridine-6-carboxylic acid]
- EC50 [1, 3]: 0.66 nM
- Predicted Hepatic Clearance (Pred. Cl.) [2]: <1.83 mL/min/kg

SMILES: COCCn1c(Cc2cc(F)c(-c3ccc(F)c(OCc4ccc(C(F)(F)F)cc4F)n3)cc2F)nc2c(F)cc(C(=O)O)cc21 [Example 761]
- EC50 [1, 3]: 0.51 nM
- Predicted Hepatic Clearance (Pred. Cl.) [2]: 1.83 mL/min/kg

SMILES: COCCn1c(Cc2cc(F)c(-c3cccc(OCc4ccc(C(C)=O)cc4)n3)cc2F)nc2ccc(C(=O)O)cc21 [Example 875]
- EC50 [1, 3]: 2.32 nM
- Predicted Hepatic Clearance (Pred. Cl.) [2]: 9.33 mL/min/kg

SMILES: COCCn1c(C2CCc3cc(-c4cccc(OCc5ccc(C#N)cc5F)n4)ccc32)nc2ccc(C(=O)O)cc21 (single isomer, unassigned) [Example 47, 2-(5-(6-((4-cyano-2-fluorobenzyl)oxy)pyridin-2-yl)-2,3-dihydro-1H-inden-1-yl)-1-(2-methoxyethyl)-1H-benzo[d]imidazole-6-carboxylic acid]
- EC50 [1, 3]: 1440 nM
- Predicted Hepatic Clearance (Pred. Cl.) [2]: 4.67 mL/min/kg

SMILES: COCCn1c(Cc2ccc(-c3cccc(OCc4ccc(C#N)cc4F)n3)c3ccccc23)nc2ccc(C(=O)O)cc21 [Example 35, 2-((4-(6-((4-cyano-2-fluorobenzyl)oxy)pyridin-2-yl)naphthalen-1-yl)methyl)-1-(2-methoxyethyl)-1H-benzo[d]imidazole-carboxylic acid]
- EC50 [1, 3]: 1000 nM
- Predicted Hepatic Clearance (Pred. Cl.) [2]: 5.17 mL/min/kg

SMILES: N#Cc1ccc(COc2cccc(-c3ccc(Cc4nc5c(F)cc(C(=O)O)cc5n4CC4(C(F)F)CC4)cc3F)n2)c(F)c1 [Example 288, 2-(4-(6-((4-cyano-2-fluorobenzyl)oxy)pyridin-2-yl)-3-fluorobenzyl)-1-((1-(difluoromethyl)cyclopropyl)methyl)-4-fluoro-1H-benzo[d]imidazole-6-carboxylic acid]
- EC50 [1, 3]: 0.76 nM
- Predicted Hepatic Clearance (Pred. Cl.) [2]: 5.08 mL/min/kg

SMILES: CC1(C)CC(Cn2c(Cc3ccc(-c4cccc(OCc5ccc(C#N)cc5F)n4)cc3F)nc3ccc(C(=O)O)cc32)O1 (single isomer, unassigned) [Example 905, 2-(4-(6-((4-cyano-2-fluorobenzyl)oxy)pyridin-2-yl)-2-fluorobenzyl)-1-((4,4-dimethyloxetan-2-yl)methyl)-1H-benzo[d]imidazole-6-carboxylic acid]
- EC50 [1, 3]: 30.9 nM
- Predicted Hepatic Clearance (Pred. Cl.) [2]: 4.33 mL/min/kg

SMILES: COCC1(Cn2c(Cc3cc(F)c(-c4cccc(OCc5ccc(C#N)cc5F)n4)cc3F)nc3ccc(C(=O)O)cc32)CC1 [Example 638]
- EC50 [1, 3]: 2.24 nM
- Predicted Hepatic Clearance (Pred. Cl.) [2]: 1.83 mL/min/kg

SMILES: COCCn1c(Cc2cc(F)c(-c3cccc(OCc4ccc(C#N)cc4F)n3)c(F)c2)nc2ccc(C(=O)O)cc21 [Example 110, 2-(4-(6-((4-cyano-2-fluorobenzyl)oxy)pyridin-2-yl)-3,5-difluorobenzyl)-1-(2-methoxyethyl)-1H-benzo[d]imidazole-6-carboxylic acid]
- EC50 ([1]; EC50 (nM)): 21.8 nM
- Predicted Hepatic Clearance (Pred. Cl.) [2]: 7 mL/min/kg

SMILES: O=C(O)c1ccc2nc(Cc3cc(F)c(-c4nc(OCc5ccc(C(F)F)cc5F)ncc4F)cc3F)n(C[C@@H]3CCO3)c2c1 [Example 877]
- EC50 [1, 3]: 0.51 nM
- Predicted Hepatic Clearance (Pred. Cl.) [2]: 7.17 mL/min/kg

SMILES: COCCn1c(Cc2ccc(-c3nc(OCc4ccc(C#N)cc4F)ccc3Cl)cc2F)nc2ccc(C(=O)O)cc21 [Example 115, 2-[[4-[3-chloro-6-[(4-cyano-2-fluoro-phenyl)methoxy]-2-pyridyl]-2-fluoro-phenyl]methyl]-3-(2-methoxyethyl)benzimidazole-5-carboxylic acid]
- EC50 [1, 3]: 80.9 nM
- Predicted Hepatic Clearance (Pred. Cl.) [2]: 8.3 mL/min/kg

SMILES: N#Cc1cc(F)c(COc2cccc(-c3ccc(Cc4nc5ccc(C(=O)O)cc5n4C[C@@H]4CCO4)c(F)c3)n2)cc1F [Example 668]
- EC50 [1, 3]: 0.56 nM
- Predicted Hepatic Clearance (Pred. Cl.) [2]: 3.67 mL/min/kg

SMILES: COCCn1c(Cc2ccc(-c3cc(OC)cc(OCc4ccc(C#N)cc4F)c3)cc2F)nc2ccc(C(=O)O)cc21 [Example 30, 2-((3′-((4-cyano-2-fluorobenzyl)oxy)-3-fluoro-5′-methoxy-[1,1′-biphenyl]-4-yl)methyl)-1-(2-methoxyethyl)-1H-benzo[d]imidazole-6-carboxylic acid]
- EC50 [1, 3]: 1350 nM
- Predicted Hepatic Clearance (Pred. Cl.) [2]: 4.67 mL/min/kg

SMILES: COCCn1c(Cc2ccc(-c3cccc(OCc4ccc(C#N)cc4OCC(F)F)n3)cc2F)nc2ccc(C(=O)O)cc21 [Example 245, 2-(4-(6-((4-cyano-2-(2,2-difluoroethoxy)benzyl)oxy)pyridin-2-yl)-2-fluorobenzyl)-1-(2-methoxyethyl)-1H-benzo[d]imidazole-6-carboxylic acid]
- EC50 [1, 3]: 140 nM
- Predicted Hepatic Clearance (Pred. Cl.) [2]: 4.5 mL/min/kg

SMILES: CCn1c(Cc2ccc(-c3cccc(OCc4ccc(C#N)cc4F)n3)cc2F)nc2ccc(C(=O)O)cc21 [Example 242, 2-(4-(6-((4-cyano-2-fluorobenzyl)oxy)pyridin-2-yl)-2-fluorobenzyl)-1-ethyl-1H-benzo[d]imidazole-6-carboxylic acid]
- EC50 [1, 3]: 18.4 nM
- Predicted Hepatic Clearance (Pred. Cl.) [2]: <1.83 mL/min/kg

SMILES: COc1cc(C#N)ccc1COc1cccc(-c2cc(F)c(Cc3nc4ccc(C(=O)O)cc4n3CC3(CC#N)CC3)cc2F)n1 [Example 427, 2-(4-(6-((4-cyano-2-methoxybenzyl)oxy)pyridin-2-yl)-2,5-difluorobenzyl)-1-((1-(cyanomethyl)cyclopropyl)methyl)-1H-benzo[d]imidazole-6-carboxylic acid]
- EC50 [1, 3]: 0.06 nM
- Predicted Hepatic Clearance (Pred. Cl.) [2]: <1.83 mL/min/kg

SMILES: COCCn1c(Cc2ccc(-c3cccc(O[C@@H](C)c4ccccc4)n3)cc2F)nc2ccc(C(=O)O)cc21 [Example 494, (S)-2-(2-fluoro-4-(6-(1-phenylethoxy)pyridin-2-yl)benzyl)-1-(2-methoxyethyl)-1H-benzo[d]imidazole-6-carboxylic acid]
- EC50 [1, 3]: 4550 nM
- Predicted Hepatic Clearance (Pred. Cl.) [2]: 13.2 mL/min/kg

SMILES: N#Cc1cc(F)c(COc2cccc(-c3cc(F)c(Cc4nc5c(F)cc(C(=O)O)cc5n4Cc4ncco4)cc3F)n2)cc1F [Example 784]
- EC50 [1, 3]: 0.55 nM
- Predicted Hepatic Clearance (Pred. Cl.) [2]: 1.83 mL/min/kg

SMILES: COCCn1c(Cc2ccc(-c3cccc(OCc4ccccc4C(F)F)n3)cc2F)nc2ccc(C(=O)O)cc21 [Example 507, 2-(4-(6-((2-(difluoromethyl)benzyl)oxy)pyridin-2-yl)-2-fluorobenzyl)-1-(2-methoxyethyl)-1H-benzo[d]imidazole-6-carboxylic acid]
- EC50 [1, 3]: 361 nM
- Predicted Hepatic Clearance (Pred. Cl.) [2]: 19.2 mL/min/kg

SMILES: N#Cc1ccc(COc2cccc(-c3cc(F)c(Cc4nc5ccc(C(=O)O)cc5n4C[C@@H]4CCO4)cc3F)n2)c(F)c1 (single isomer, unassigned) [Example 757]
- EC50 [1, 3]: 0.03 nM
- Predicted Hepatic Clearance (Pred. Cl.) [2]: 4.33 mL/min/kg

SMILES: COCCn1c(Cc2cc(F)c(-c3cccc(OCc4cccc5c4COC5)n3)cc2F)nc2ccc(C(=O)O)cc21 [Example 873]
- EC50 [1, 3]: 83.8 nM
- Predicted Hepatic Clearance (Pred. Cl.) [2]: 12.2 mL/min/kg

Source: US11702404B2, “GLP-1R modulating compounds” (priority 2019, dated 2023)
